# PMC7698842, “Lanostane Triterpenoid Metabolites from a Penares sp. Marine Sponge Protect Neuro-2a Cells against Paraquat Neurotoxicity” (Molecules, 2020)
# Tests used:
# Type in all cases: cell-based, mouse
# [1] = system: Hsp70 level in Neuro-2a cells; assay: Hsp70 level analysis by Western blot in Neuro-2a cells; conditions: compound 10 µM 1 h, then PQ 500 µM 24 h
# Method: The Hsp70 expression was detected by Western blot analysis. Cell suspensions (1.6 × 10^5 cells/well of a 6-well plate) were seeded and treated with studied compounds at a concentration of 10 µM for 1 h. After that, PQ (500 µM) was added and cells were incubated during 24 h. Cells incubated without PQ and compounds and with PQ alone were used as positive and negative controls, respectively. Cells were washed by cold PBS (BioloT, Russia) twice and lysed by radioimmunoprecipitation assay (RIPA) buffer (BioloT, St. Peterburg, Russia). The amount of proteins was measured by the Bradford method and equal samples (25 µg) were prepared using sample buffer. Proteins were separated with sodium dodecyl sulphate (SDS) electrophoresis in 10% polyacrylamide gel. The electrophoretically separated proteins were transferred onto the polyvinylidene difluoride (PVDF) membrane Whatman (Sigma-Aldrich, St. Louis, MO, USA) using a semi-dry transfer apparatus (Helicon, Moscow, Russia). […] The peroxidase reaction was visualized by an enhanced chemiluminescence (ECL) kit according to the instructions of the manufacturer (Sigma-Aldrich, St. Louis, MO, USA) using the VersaDoc Imaging System (Bio-Rad, Hercules, CA, USA).
# [2] = system: PQ-treated Neuro-2a cells; assay: PQ-treated Neuro-2a cell viability (MTT assay); conditions: compound 1 and 10 µM, PQ 500 µM, 24 h
# Method: The cells (1 × 10^4 cells/well of a 96-well plate) were incubated with different concentrations of studied compounds during 24 h. After that, cell viability was determined by the MTT (3-(4,5-dimethylthiazol-2-yl)-2,5-diphenyltetrazolium bromide) method according to the manufacturer’s instructions (Sigma-Aldrich, St. Louis, MO, USA). Absorbance of the converted formazan was measured using a Multiskan FC microplate photometer (Thermo Scientific, Waltham, MA, USA) at λ = 570 nm. The results were presented as percent of control data, and concentration of cell viability inhibition on 50% (IC50) was calculated.
# The cells (1 × 10^4 cells/well of a 96-well plate) were treated with studied compounds at concentrations of 1 and 10 µM for 1 h and then 500 µM of PQ (Sigma-Aldrich, St. Louis, MO, USA) was added to the neuroblastoma cells. Cells incubated without PQ and compounds and with PQ alone were used as positive and negative controls, respectively. The viability of cells was measured after 24 h using MTT and FDA methods. The results were presented as percent of positive control data.
# [3] = system: mitochondrial membrane potential in PQ-treated Neuro-2a cells; assay: Mitochondrial membrane potential detection (TMRM) in PQ-treated Neuro-2a cells; conditions: compound 10 μM, PQ 500 µM 1 h
# Method: The cells (1 × 10^4 cells/well of a 96-well plate) were incubated with compound solutions (1 and 10 µM) during 1 h. Then, PQ was added to cell suspension to a resulting concentration of 500 µM for incubation during 1 h. Cells incubated without PQ and compounds and with PQ alone were used as positive and negative controls, respectively. The tetramethylrhodamine methyl (TMRM) (Sigma-Aldrich, St. Louis, MO, USA) solution at 500 nM was added in each well and cells were incubated for 30 min at 37 °C. The intensity of fluorescence was measured with a PHERAstar FS plate reader (BMG Labtech, Ortenberg, Germany) at λex = 540 nm and λem = 590 nm. The data were processed by MARS Data Analysis v. 3.01R2 (BMG Labtech, Ortenberg, Germany). The results were presented as percent of positive control data.
smiles,measurement,setting,value
"CC(C)=CCC[C@@H](C)[C@H]1CC[C@@]2(C(=O)O)C3=C(CC[C@]12C)[C@@]1(C)CCC(=O)C(C)(C)[C@@H]1CC3 [Compound 4, penasterone]",increase of Hsp70 level in PQ-treated cells,[1],56%
same,effect on PQ-treated cell viability (MTT assay),[2],did not show any effect
same,increase of intensity of TMRM fluorescence (PQ-induced mitochondrial dysfunction diminished),[3],28%
